Experimental findings from patent US9713598B2, “Treatment of insulin resistance associated with prolonged physical inactivity” (ABBOTT LABORATORIES, priority 2013, dated 2017) are described below.

Assay type in all cases: in vivo
Test [1] has as its system Insulin-like Growth Factor-Binding Protein 2 (IGFBP-2). Kind of test: 10-day bed rest study in healthy elderly subjects: circulating IGFBP-2 (RBM Human Discovery map, serum). From the text: (§1) The following inclusion criteria were verified at screening: male or female ≧60 to ≦79 years of age; body mass index (BMI) ≧20 but ≦35; ambulatory with a Short Performance Physical Battery (SPPB) score of ≧9 (fully functional with no mobility limitations); compliance with prescribed activity level. Exclusion criteria ruled out subjects who had undergone recent major surgery, had active malignancy (exception basal or squamous cell skin carcinoma or carcinoma in situ of the uterine cervix); history of Deep Vein Thrombosis (DVT) or other hypercoagulation disorders; refractory anemia; history of diabetes or fasting blood glucose value >126 mg/dL; presence of partial or full artificial limb; kidney disease or serum creatinine >1.4 mg/dL; evidence of cardiovascular disease assessed during resting or exercise EKG; untreated hypothyroidism; liver disease; chronic or acute GI disease; uncontrolled severe diarrhea, nausea or vomiting; were actively pursuing weight loss; were enrolled in other clinical trials; could not refrain from smoking over the bed rest study period or could not discontinue anticoagulant therapy over bed rest period. Potential subjects were also excluded if they were taking any medications known to affect protein metabolism (e.g., progestational agents, steroids, growth hormone, dronabinol, marijuana, HMB, free amino acid supplements, dietary supplements to aid weight loss).
(§2) The 24 healthy subjects initially involved in the study were randomized into two groups. Subjects in the treatment group received two β-hydroxy-β-methylbutyrate (HMB) sachets containing 1.5 grams Ca-HMB (TSI, Salt Lake City, Utah), 4 grams maltodextrin and 200 mg Calcium with additional sweetener and flavoring groups. Subjects in the control group received two control sachets that were identical to the HMB sachets with the exclusion Ca-HMB. This study was a double-blinded study. Neither the investigators nor the subjects were informed of the identity of any of the study products during the clinical portion of the study. Subjects were instructed to consume twice daily by mixing each sachet into a non-caloric, non-caffeinated, non-carbonated, non-milk-based beverage of their choice. Treatment with HMB or Control was initiated 5 days prior to bed rest and was continued until the end of the rehabilitation period.
(§3) For diet stabilization over the pre-bed rest and bed rest period, subjects were fed a metabolically controlled diet providing the RDA for protein intake (0.8 g protein/kg body weight per day). Total calorie needs were estimated using the Harris-Benedict equation for resting energy expenditure according to the following equation: For women=[655+(9.56×body weight in kg)+(1.85×height in cm)−(4.68×age in years)]×AF, or, For men=[66+(13.7×body weight in kg)+(5×height in cm)−([…]]×AF, where AF=activity factor of 1.6 for the ambulatory and 1.35 for the bed rest periods. Given the total calorie and protein intakes, the remainder of the diet was manipulated to keep the non-protein calories at about 60% from carbohydrates and 40% from fat. Water was provided ad libitum.
(§4) After a diet stabilization of 5 days (ambulatory period), subjects remained in bed continuously for 10 days. While confined to bed rest, subjects were allowed to use the bedside commode for urination or were taken in a wheelchair for toileting. […] Subjects were constantly monitored by nursing staff and received a daily physical examination by the study physician. […]

A further test relates to Leptin. Kind of test: 10-day bed rest study in healthy elderly subjects: circulating Leptin (RBM Human Discovery map, serum).
Excerpt: as §1, §2
For diet stabilization over the pre-bed rest and bed rest period, subjects were fed a metabolically controlled diet providing the RDA for protein intake (0.8 g protein/kg body weight per day). […]
After a diet stabilization of 5 days (ambulatory period), subjects remained in bed continuously for 10 days. […] Subjects were constantly monitored by nursing staff and received a daily physical examination by the study physician. […]

The test system of a further test is C-peptide. Kind of test: 10-day bed rest study in healthy elderly subjects: circulating C-peptide (RBM Human Discovery map, serum).
Excerpt: as §1, §2, §3, §4

[2] abbreviates: HMB Treatment (n = 10), end of 10 days of bed rest.
[3] abbreviates: HMB Treatment (n = 10), two sachets of 1.5 g Ca-HMB daily, started 5 days prior to bed rest, fasted blood, Day 1 of bed rest.

Where “and” joins values, the source holds several entries; their conditions need not be identical. Equal values may be shown once.

Turning to `CC(C)(O)CC(=O)O` [HMB, β-hydroxy-β-methylbutyric acid], the “percent change in blood levels of IGFBP-2” value in test [1] (10 HMB treated subjects, after 10 days of bed rest, control −24.56%) was −15.63%. In test [1] (setting [2]), the “IGFBP-2, Post-bed rest Mean” value was determined as 106.97 ng/mL. Besides, the “IGFBP-2, Change” value in test [1] (HMB Treatment (n = 10), pre- to post-bed rest, 10 days, control change −30.54 ± 13.64) is -20.89 ng/mL and -20.89 ± 6.84 ng/mL. In addition, in test [1] (setting [3]), the “IGFBP-2, Pre-bed rest Mean” value worked out at 127.86 ng/mL. Besides, the “effect on bed-rest change in blood levels of IGFBP-2 versus control subjects” value in test [1] (prolonged bed rest, 10 days) is reported as “reduces or attenuates the decrease in blood levels of IGFBP-2”. In the test on Leptin (setting [2]), the “Leptin, Post-bed rest Mean” value was determined as 19.31 ng/mL. The “Leptin, Change” value in the test with Leptin (HMB Treatment (n = 10), pre- to post-bed rest, 10 days, control change 5.06 ± 1.88) was 4.11 ng/mL and 4.11 ± 1.89 ng/mL. The “Leptin, Pre-bed rest Mean” value in the test with Leptin (setting [3]) came out at 15.20 ng/mL. Moreover, the “effect on bed-rest change in blood levels of Leptin versus untreated control subjects” value with Leptin (prolonged bed rest, 10 days) was “reduces or attenuates the increase in blood levels of Leptin”. Moreover, the “percent increase in blood levels of C-peptide” value in the test on C-peptide (10 HMB treated subjects, after 10 days of bed rest, control 43.0%) amounted to 29.59%. For the same compound, the “C-peptide, Post-bed rest Mean” value in the test with C-peptide (setting [2]) is 1.69 ng/mL. In the test with C-peptide (HMB Treatment (n = 10), pre- to post-bed rest, 10 days, control change 0.54 ± 0.22), the “C-peptide, Change” value was 0.28 ng/mL and 0.28 ± 0.08 ng/mL. Further, the “C-peptide, Pre-bed rest Mean” value in the test with C-peptide (setting [3]) was 1.41 ng/mL. Also, the “effect on bed-rest change in blood levels of C-peptide versus untreated control subjects” value in the test with C-peptide (prolonged bed rest, 10 days) was “reduces or attenuates the increase in blood levels of C-peptide”.
